Test results: patent publication US8128802B2, “Analysis apparatus and analysis method for glycosylated hemoglobin” (OJI Paper Co., Ltd, priority 2005, dated 2012)

Columns and labels:
Assay type in all cases: biochemical
[1] = tested on: fructosyl amino acid oxidase; assay: Substrate specificity of fructosyl amino acid oxidase-immobilized column (Example 3); conditions: buffers pH 8.0; for Relative response value: normalized to 100 for the response to fructosyl glycine, 37° C., dialysis module
Description: The buffer was removed as far as possible. […] The support immobilized enzyme was packed into the column (internal diameter: 3.5 mm, length: 30 mm) to give the fructosyl amino acid oxidase-immobilized column. In the assay apparatus shown in FIG. 2, the flow type calorimeter (16), the protease-immobilized column (14) and the first immobilized enzyme column (17) were not disposed, and the electrode for glucose was placed in the electrode for hydrogen peroxide (18), the fructosyl amino acid oxidase-immobilized column in the second immobilized enzyme column (19), and the electrode for hydrogen peroxide in the electrode for hydrogen peroxide (20). The buffer B was pumped out from the buffer tank (24) using the pump (25), and a 100 μL portion of the sample was injected using the valve (4). […] Since the buffer A was pumped out from the buffer tank (1) by the pump (2), the components with low molecular weight in the sample dialyzed in the dialysis module (27) passed through the electrode for glucose (18), the fructosyl amino acid oxidase-immobilized column (19) and the electrode for hydrogen peroxide (20), and hydrogen peroxide from glucose and fructosyl amino acid in the sample was detected. […] The temperature in the incubator was 37° C. The substrate specificity of fructosyl amino acid oxidase-immobilized column for various fructosyl amino acids, fructosyl peptides, amino acids and sugars was examined using the assay apparatus mentioned in (4) when pH of the buffers was 8.0.

[2] = tested on: fructosyl peptide oxidase; assay: Substrate specificity, pH profile and stability of fructosyl peptide oxidase-immobilized column (Example 1); conditions: normalized to 100 for the response to fructosyl valine at each pH, 30° C.; for Relative activity (%) pH 6.0: buffer pH 6.0; for Relative activity (%) pH 7.0: buffer pH 7.0; for Relative activity (%) pH 8.0: buffer pH 8.0
Description: Firebrick powder (150 mg, 30 to 60 meshes) was thoroughly dried, immersed in a 10% solution of γ-aminopropyltriethoxysilane in anhydrous toluene for one hour, then thoroughly washed with anhydrous toluene and dried. The aminosilane-modified support was immersed in a 5% aqueous glutaraldehyde solution for one hour, and then thoroughly washed with distilled water, followed by substitution with 100 mM sodium phosphate buffer (pH 7.0). The buffer was removed as far as possible. A solution ([…]) of fructosyl peptide oxidase (140 units/mL, from Kikkoman Co.) in 100 mM sodium phosphate buffer (pH 7.0) was contacted with the formylated firebrick powder, and then incubated at 0 to 4° C. for one day for the enzyme immobilization. The support immobilized enzyme was packed into a column (internal diameter: 3.5 mm, length: 30 mm) to give the fructosyl peptide oxidase-immobilized column.
The buffer was pumped out from a buffer tank (1) using a pump (2), and 5 μL of a sample was injected using a valve (4). A protease-immobilized column (14), a flow type calorimeter (16), a second immobilized enzyme column (19) and a second electrode for hydrogen peroxide (20) were not placed, and a fructosyl peptide oxidase-immobilized column was placed as a first immobilized enzyme column (17), followed by an electrode for hydrogen peroxide (18) downstream thereof. The injected sample transferred with the flowing buffer, passed through a mixing coil (15) inside an incubator (13), and thus the sample temperature was adjusted and the sample was mixed with the buffer. The sample passed through the fructosyl peptide oxidase-immobilized column (17) and the electrode for hydrogen peroxide (18) to produce hydrogen peroxide from fructosyl valylhistidine in the sample, and then the change of the current was detected.
A composition of the buffer used in this assay apparatus contained 100 mM phosphoric acid, 50 mM potassium chloride and 1 mM sodium azide, and its pH was 7.0.
(§1) The flow rate of the buffer was 1.0 mL/minute, and the temperature in the incubator was 30° C.
Using the assay apparatus described in (3), a 5 μL portion of fructosyl glycine, fructosyl valine or fructosyl valylhistidine was injected, and the characteristics of the fructosyl peptide oxidase-immobilized column was examined.
When pH of the buffer was 6.0, 7.0 or 8.0, the assay results of the activity for the oxidation of fructosyl glycine (FG), fructosyl valine (FV) or fructosyl valylhistidine (FVH) were shown in FIG. 3. For fructosyl glycine the activity was high at pH 8.0, but the activity at pH 6.0 was decreased to about 50% of that at pH 8.0. For fructosyl valine and fructosyl valylhistidine, the activity was high at pH 6.0 and 7.0.
Response values in Table 1 were normalized to 100 for the response to fructosyl valine at each pH.

[3] = tested on: fructosyl peptide oxidase; assay: Substrate specificity of fructosyl peptide oxidase-immobilized column (Example 4); conditions: buffer A pH 7.0; normalized to 100 for the response to fructosyl valine; 30° C.
Description: In the same way as described in Example 1 (1), 150 mg of firebrick powder (30 to 60 meshes) was formylated. The solution (200 μL) of fructosyl peptide oxidase (140 units/mL, from Kikkoman Co.) in 100 mM sodium phosphate buffer (pH 7.0) was contacted with the formylated firebrick powder, and then incubated at 0 to 4° C. for one day for the enzyme immobilization.
In the assay apparatus shown in FIG. 1, the protease-immobilized column (14), the flow type calorimeter (16) and the first immobilized enzyme column (17) were not disposed, and the electrode for glucose was placed in the electrode for hydrogen peroxide (18), the fructosyl peptide oxidase-immobilized column in the second immobilized enzyme column (19), and the electrode for hydrogen peroxide in the electrode for hydrogen peroxide (20). The buffer A was pumped out from the buffer tank (1) by the pump (2), and a 5 μL portion of the sample was injected using the valve (4). The injected sample transferred with the flowing buffer A, passed through the mixing coil (15) in the incubator (13), and thus the sample temperature was adjusted and the sample was mixed with the buffer. And then the sample passed through the downstream electrode for glucose (18), fructosyl peptide oxidase-immobilized column (19) and an electrode for hydrogen peroxide (20), hydrogen peroxide was produced from fructosyl valylhistidine in the sample, and the change of the current was detected.
The composition of the buffer A for the assay apparatus contained 100 mM phosphoric acid, 50 mM potassium chloride and 1 mM sodium azide, and its pH was 7.0.
as §1
On fructosyl peptide oxidase-immobilized column, the substrate specificity for various fructosyl amino acids, fructosyl peptides, amino acids and sugars was examined using the assay apparatus mentioned in (4) when pH of the buffer A was 7.0. In the Table 4, the relative values were normalized to 100 for the response to fructosyl valine.

[4] = tested on: fructosyl amino acid oxidase; assay: Characteristics of fructosyl amino acid oxidase-immobilized column (Example 5); conditions: sample concentration 10 mM; buffer pH 8.0, 37° C.
Description: FIG. 1 was the flow type assay apparatus with one flow path. The buffer A was pumped out from the buffer tank (1) using the pump (2), and a 5 μL portion of the sample was injected using the valve (4). The fructosyl amino acid oxidase-immobilized column was placed in the first immobilized enzyme column (17) and the electrode for hydrogen peroxide was placed downstream. The second immobilized enzyme column (19), the second electrode for hydrogen peroxide (20), the protease-immobilized column (14) and the flow type calorimeter (16) were not disposed. The injected sample transferred with the flowing buffer, passed through the mixing coil (15) in the incubator (13), and thus the sample temperature was adjusted and the sample was mixed with the buffer. The sample passed through the fructosyl amino acid oxidase-immobilized column (17) and the electrode for hydrogen peroxide (18), hydrogen peroxide was produced from fructosyl valine in the sample, and the change of the current was detected.
The composition of the buffer for this assay apparatus contained 100 mM phosphoric acid, 50 mM potassium chloride and 1 mM sodium azide, and its pH was 8.0.
The flow rate of the buffer was 1.0 mL/minute, and the temperature in the incubator was 37° C.
Using the assay apparatus 1 mentioned in (3), a 5 μL portion of fructosyl glycine was injected, and the characteristics of the fructosyl amino acid oxidase-immobilized column was examined.
When pH in the buffer was 7.0, 7.5, 8.0, 8.5 or 9.0, the activity in the oxidation of fructosyl glycine was measured.

Row | response of fructosyl amino acid oxidase-immobilized column [1] | Relative response value [1] | Relative activity (%) pH 6.0 [2] [%] | Relative activity (%) pH 7.0 [2] [%] | Relative activity (%) pH 8.0 [2] [%] | Relative response value [3] | Relative activity (%) [4] [%] | SMILES
1 | extremely small responses | 0.1 | 0 | 0 | 0 | 0.0 | 8.0 | CSCC[C@H](N)C(=O)O [Met]
2 | – | 0.0 | 0 | 0 | 0 | 0.0 | 0.0 | CC(C)[C@H](N)C(=O)O [Val]
3 | – | 0.0 | 0 | 0 | 0 | 0.0 | 0.0 | OC[C@@H](O)[C@@H](O)[C@H](O)[C@@H](O)CO [D-Sorbitol]
4 | – | 0.0 | 0 | 0 | 0 | 0.0 | 0.0 | N[C@@H](CCC(=O)O)C(=O)O [Glu]
5 | – | 0.0 | 0 | 0 | 0 | 0.0 | 0.0 | C[C@H](N)C(=O)O [Ala]
6 | extremely small responses | 0.2 | 0 | 0 | 0 | 0.0 | 6.0 | NC(=O)CC[C@H](N)C(=O)O [Gln]
7 | – | 0.0 | 0 | 0 | 0 | 0.0 | 0.0 | N[C@@H](CO)C(=O)O [Ser]
